Source: US12269859B2, “Synthetic immune receptors and methods of use thereof” (Angeles Therapeutics, Inc., priority 2016, dated 2025)
“Also recorded” adds a separate entry of the source.

System: RAJI cells
Assay: GLuc cytotoxicity assay, RAJI-GLuc cells
Format: cell-based, human
Procedure: (D) Assay for Cytotoxic Activity in vitro and in vivo: The uninfected T cells or those expressing a control vector or SIR are cocultured with the target cell lines expressing a non-secretory form of a luciferase (such as GLuc, NLuc, Turboluc 16 etc.) for 4-96 hours and induction of cell lysis examined by measuring the luciferase activity as described in PCT/US17/52344. Alternate methods for measurement of cytotoxic activity (e.g., ^51Cr release assay or LDH release assay) can be used as well. The activity of T cells expressing a SIR can be also assayed in vivo using appropriate xenograft models in immunodeficient mice.
Cell death assay. To measure cell death, a novel assay based on ectopic cytosolic expression of Gluc or NLuc was utilized as described in PCT/US17/52344 “A Non-Radioactive Cytotoxicity Assay”. The method involves expression of a reporter in a target cells in a manner so that it is preferentially retained within the healthy cells but is either released from dead and dying cells or whose activity can be preferentially measured in dead and dying cells. The preferred reporter for this assay are 1) non-secreted forms of luciferases from the copepods, such as Gaussia princeps, Pleuromamma abdominalis, Metridia pacifica, Metridia curticauda, Metridia asymmetrica, Metridia okhotensis, Metridia longa, Lucicutia ovaliformis, Heterorhabdus tanneri, and Pleuromamma scutullata 2) engineered luciferase reporters from deep sea shrimp, such as NanoLuc. The sequence of several such reporter vectors is provided in SEQ ID NO: 881 to SEQ ID NO: 887. The above vectors were used to generate retrovirus and lentiviruses which in turn were used to generate polyclonal population of several target cell lines stably expressing GLuc, NLuc, TurboLuc or MLuc7 following selection with appropriate antibiotics. Unless indicated otherwise, the target cells stably expressing the different luciferases (GLuc, Nluc, MLuc7 or TurboLuc16) were plated in triplicate in a 384 well plate in the media used for growing the target cells. Target cells which grow in suspension were generally plated at a concentration of 2-3×10^4 per well, while target cells which grow as adherent monolayers were plated at a concentration of 1-2×10^4 per well. Unless indicated otherwise, the target cells were cocultured with the genetically modified T cells (i.e. those expressing SIR or CAR) at an Effector:Target (E:T) ratio varying from 1:1 to 10:1 for 4 hours to 96 hours. In the case target cells grow as adherent cells (e.g., HeLa cells), they were allowed to attach to the bottom of the wells overnight before the T cells were added. T cells mediated induction of lysis of target cells was assayed by increase of luciferase activity as measured by BioTek synergy plate reader by directly injecting 0.5×CTZ assay buffer containing native coeloentrazine (Nanaolight).
CTZ assay. A 100× stock solution of native coelenterazine (CTZ; Nanolight, cat #303) was made by dissolving 1 mg of lyophilized CT powder in 1.1 ml of 100% Methanol supplemented with 30 μl of 6N HCl to avoid oxidation of CTZ with time. To make CTZ assay buffer, the 100× stock solution of CTZ was diluted to 0.5× concentration in PBS. Unless indicated otherwise, a total volume of 15 μl of the CTZ assay buffer (as prepared above) was added to each well of a 384-well white plate (Greiner, 384 well white plate cat #781075) containing cells expressing the non-secretory form of the luciferase in approximately 50-60 μl volume of medium and plates were read for luminescence in endpoint mode using BioTek synergyH4 plate reader. For 96 well plates, cells were plated in 200 μl of media and approximately 50 μl of 0.5×CTZ assay buffer was added. Unless indicated otherwise, the 0.5×CTZ assay buffer was used for assaying the activity of GLuc, TurboLuc16, and MLuc7. The CTZ assay buffer (diluted to 0.125× concentration) was also used for measurement of NLuc activity in some experiments (see below).

| Substance | lysis of target cells by increase of GLuc activity (in words) (E:T 1:1, 96 hours) | lysis of target cells by increase of GLuc activity (in words) (E:T 10:1, 4 hours) | mean Gluc values (E:T 10:1, 4 hours) |
| --- | --- | --- | --- |
| CD8SP-FMC63-vL-V5-[TCRb-S57C-opt1]-F-P2A-SP-FMC63-vH-Myc-[TCRa-T48C-opt1]-F-F2A-PAC [SEQ ID NO:900] | increase in GLuc activity | increase in GLuc activity; also recorded: induced effective target cell lysis; also recorded: Modest cytotoxicity | 3042 |
| CD8SP-CD19Bu12-vL-V5-[TCRb-S57C-opt1]-F-P2A-SP-CD19Bu12-vH-Myc-[TCRa-T48C-opt1]-F-F2A-PAC [SEQ ID NO:1021] | increase in GLuc activity | increase in GLuc activity | 2547 |
